Legend:
EGFR L858R = EGFR L858R (Homo sapiens (Human), UniProt P00533, L858R); experiment: Biochemical EGFR inhibition assay, EGFR L858R; details: Caliper mobility shift; 1.0 mM ATP or ATP Km; read-out: Enz EGFR_L858R IC50
EGFR (d746-750) = EGFR (d746-750) (Homo sapiens (Human), UniProt P00533, DEL746-750); experiment: Biochemical EGFR inhibition assay, EGFR (d746-750); details: Caliper mobility shift; 1.0 mM ATP or ATP Km; read-out: Enz EGFR_Exon19-del746-750 IC50
[1] = molecular target: pEGFR (Tyr1068) in PC-9 cells (Ex19Del) (Homo sapiens (Human), UniProt P00533, DEL746-750); experiment: PC-9 pEGFR AlphaLISA assay; format: cell-based; details: 4 hours incubation, p-EGFR (Tyr1068) AlphaLISA, read-out: Ext pEGFR_PC-9 Ex19Del IC50
How it was run: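 Compounds are added in ten 4-fold dilutions to adherent cells grown in serum-containing (10% FBS) phenol-free DMEM and left for 4 hours at 37° C. Phosphorylated receptor in lysates is quantified by bead-based AlphaLISA. IC50 values derive from inhibition plotted against log dose.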

Chain of pEGFR (Tyr1068) in PC-9 cells (Ex19Del) (P00533 other isoform, or with tags, fused parts or gaps del 746-750): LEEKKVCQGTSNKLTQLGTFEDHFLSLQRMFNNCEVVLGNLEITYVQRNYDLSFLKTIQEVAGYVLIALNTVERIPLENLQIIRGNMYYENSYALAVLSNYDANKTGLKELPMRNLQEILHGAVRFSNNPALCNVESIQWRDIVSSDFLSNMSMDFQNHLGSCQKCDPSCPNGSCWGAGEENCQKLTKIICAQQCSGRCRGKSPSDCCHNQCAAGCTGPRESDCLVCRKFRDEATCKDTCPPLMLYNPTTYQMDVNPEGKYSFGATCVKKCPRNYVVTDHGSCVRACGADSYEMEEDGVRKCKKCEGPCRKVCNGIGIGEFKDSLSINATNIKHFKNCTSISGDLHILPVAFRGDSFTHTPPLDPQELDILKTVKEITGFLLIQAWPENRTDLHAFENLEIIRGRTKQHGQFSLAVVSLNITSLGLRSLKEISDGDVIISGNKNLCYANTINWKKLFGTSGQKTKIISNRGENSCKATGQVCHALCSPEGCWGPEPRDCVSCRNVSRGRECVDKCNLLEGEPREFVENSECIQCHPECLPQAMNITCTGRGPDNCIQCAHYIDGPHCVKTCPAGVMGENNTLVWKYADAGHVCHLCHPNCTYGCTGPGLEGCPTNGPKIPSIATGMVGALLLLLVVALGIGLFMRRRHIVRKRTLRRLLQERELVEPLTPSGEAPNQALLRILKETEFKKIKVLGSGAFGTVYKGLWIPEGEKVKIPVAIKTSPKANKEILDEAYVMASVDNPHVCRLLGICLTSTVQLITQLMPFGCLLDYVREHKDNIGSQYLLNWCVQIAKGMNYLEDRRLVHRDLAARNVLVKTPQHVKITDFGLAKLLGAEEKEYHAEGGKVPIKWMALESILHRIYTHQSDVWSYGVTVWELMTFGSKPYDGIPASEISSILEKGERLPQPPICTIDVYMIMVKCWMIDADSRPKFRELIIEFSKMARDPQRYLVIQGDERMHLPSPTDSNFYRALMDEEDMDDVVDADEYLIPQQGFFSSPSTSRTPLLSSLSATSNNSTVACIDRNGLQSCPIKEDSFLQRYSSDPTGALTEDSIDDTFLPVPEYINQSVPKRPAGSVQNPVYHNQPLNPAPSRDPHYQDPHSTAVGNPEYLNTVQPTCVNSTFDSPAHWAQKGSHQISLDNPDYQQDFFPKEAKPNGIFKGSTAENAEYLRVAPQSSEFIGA
Chain of EGFR L858R (P00533 25-1210 L858R): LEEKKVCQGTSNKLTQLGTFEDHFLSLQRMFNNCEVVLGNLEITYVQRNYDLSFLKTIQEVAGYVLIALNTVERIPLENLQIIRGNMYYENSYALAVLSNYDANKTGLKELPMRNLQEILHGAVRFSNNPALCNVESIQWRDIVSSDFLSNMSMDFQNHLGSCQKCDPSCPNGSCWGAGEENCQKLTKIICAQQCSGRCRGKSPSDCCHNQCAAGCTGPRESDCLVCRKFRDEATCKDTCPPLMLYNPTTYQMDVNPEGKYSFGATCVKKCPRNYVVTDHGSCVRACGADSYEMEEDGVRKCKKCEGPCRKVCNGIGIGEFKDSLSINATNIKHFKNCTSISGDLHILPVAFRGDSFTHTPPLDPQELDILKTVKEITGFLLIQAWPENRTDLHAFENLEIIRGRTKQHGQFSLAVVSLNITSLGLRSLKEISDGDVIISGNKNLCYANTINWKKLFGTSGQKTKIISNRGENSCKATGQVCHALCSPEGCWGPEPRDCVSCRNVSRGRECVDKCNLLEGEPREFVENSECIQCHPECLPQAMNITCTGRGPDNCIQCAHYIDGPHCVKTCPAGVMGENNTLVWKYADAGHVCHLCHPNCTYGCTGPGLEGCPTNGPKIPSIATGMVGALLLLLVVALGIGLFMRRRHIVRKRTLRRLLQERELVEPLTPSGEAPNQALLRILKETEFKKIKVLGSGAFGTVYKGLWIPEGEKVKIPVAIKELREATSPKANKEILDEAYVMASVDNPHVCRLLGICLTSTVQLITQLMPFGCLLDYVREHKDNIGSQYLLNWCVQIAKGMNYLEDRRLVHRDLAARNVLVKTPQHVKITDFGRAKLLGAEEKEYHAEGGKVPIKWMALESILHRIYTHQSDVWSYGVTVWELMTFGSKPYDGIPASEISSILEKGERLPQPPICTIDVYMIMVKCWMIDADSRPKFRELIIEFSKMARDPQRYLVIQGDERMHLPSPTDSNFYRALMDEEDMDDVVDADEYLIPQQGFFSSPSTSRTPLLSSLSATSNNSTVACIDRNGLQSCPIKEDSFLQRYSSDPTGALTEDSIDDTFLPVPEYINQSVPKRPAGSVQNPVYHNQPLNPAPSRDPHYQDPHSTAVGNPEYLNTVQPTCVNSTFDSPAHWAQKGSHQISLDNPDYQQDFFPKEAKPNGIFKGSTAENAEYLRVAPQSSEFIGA
Chain of EGFR (d746-750) (P00533 other isoform, or with tags, fused parts or gaps del 1-694/del 746-750 limits assumed): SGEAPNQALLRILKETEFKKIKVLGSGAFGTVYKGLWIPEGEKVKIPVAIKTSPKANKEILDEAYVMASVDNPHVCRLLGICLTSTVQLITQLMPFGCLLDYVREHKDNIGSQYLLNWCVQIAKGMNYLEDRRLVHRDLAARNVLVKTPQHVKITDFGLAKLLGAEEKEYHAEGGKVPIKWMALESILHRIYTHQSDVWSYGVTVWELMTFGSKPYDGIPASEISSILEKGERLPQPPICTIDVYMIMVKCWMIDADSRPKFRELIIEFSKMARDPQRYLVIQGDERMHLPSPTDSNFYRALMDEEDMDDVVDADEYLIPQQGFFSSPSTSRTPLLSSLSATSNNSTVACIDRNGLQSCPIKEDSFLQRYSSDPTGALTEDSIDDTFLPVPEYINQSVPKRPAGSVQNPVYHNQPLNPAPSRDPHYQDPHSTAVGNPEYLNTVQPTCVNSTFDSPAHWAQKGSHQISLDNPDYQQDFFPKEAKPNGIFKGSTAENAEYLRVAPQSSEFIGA

| SMILES | IC50 (EGFR L858R) [nM] | IC50 (EGFR (d746-750)) [nM] | IC50 [1] [nM] |
| --- | --- | --- | --- |
| COc1cc2ncnc(-c3cn(C)nc3-c3ccccc3)c2nc1NC(=O)C1(C(F)F)CC1 [Example 369, 1-(difluoromethyl)-N-(7-methoxy-4-(1-methyl-3-phenyl-1H-pyrazol-4-yl)pyrido[3,2-d]pyrimidin-6-yl)cyclopropane-1-carboxamide] | 1.3 | 0.7 | 0.9 |
| COc1cc2ncnc(-c3cn(CC(F)F)nc3-c3ccccc3)c2nc1OC [Example 20, 4-(1-(2,2-difluoroethyl)-3-phenyl-1H-pyrazol-4-yl)-6,7-dimethoxypyrido[3,2-d]pyrimidine] | 1.2 | 0.5 | 0.9 |
| CCn1ccc(C(=O)Nc2cc3c(-c4cn(C)nc4-c4ccccc4)ncnc3cc2OC)n1 [Example 202, 1-ethyl-N-(7-methoxy-4-(1-methyl-3-phenyl-1H-pyrazol-4-yl)quinazolin-6-yl)-1H-pyrazole-3-carboxamide] | 0.9 | 0.6 | 0.6 |
| COc1cc2ncnc(-c3cn(C)nc3-c3ccccc3)c2cc1NC(=O)c1cncc(C)c1 [Example 321, N-(7-methoxy-4-(1-methyl-3-phenyl-1H-pyrazol-4-yl)quinazolin-6-yl)-5-methylnicotinamide] | 5.2 | 2.7 | 5.3 |
| COc1cc2ncnc(-c3cn(C)nc3-c3ccccc3)c2cc1NC(=O)[C@@]1(C)CCCO1 (single isomer, unassigned) [Example 259, (R)—N-(7-methoxy-4-(1-methyl-3-phenyl-1H-pyrazol-4-yl)quinazolin-6-yl)-2-methyltetrahydrofuran-2-carboxamide or (S)—N-(7-methoxy-4-(1-methyl-3-phenyl-1H-pyrazol-4-yl)quinazolin-6-yl)-2-methyltetrahydrofuran-2-carboxamide] | 2.6 | 1.1 | 4.2 |
| COc1cc2ncnc(-c3cn(C)nc3-c3ccccc3)c2cc1NC(=O)c1ccncc1C [Example 191, N-(7-methoxy-4-(1-methyl-3-phenyl-1H-pyrazol-4-yl)quinazolin-6-yl)-3-methylisonicotinamide] | 3.8 | 1.8 | 6.4 |
| CCC(=O)Nc1cc2c(-c3cnn(CC(F)F)c3-c3ccccc3)ncnc2cc1OC [Example 500] | 2.9 | 7 | 55.7 |
| CCOc1cc2ncnc(-c3cn(C)nc3-c3ccccc3)c2cc1Cn1ncnc1C [Example 134, 7-ethoxy-6-((5-methyl-1H-1,2,4-triazol-1-yl)methyl)-4-(1-methyl-3-phenyl-1H-pyrazol-4-yl)quinazoline] | 4 | 2.1 | 11.6 |
| COc1cc2ncnc(-c3cn(C)nc3-c3ccccc3)c2cc1NC(=O)c1ccc(C(F)F)nc1 [Example 352, 6-(difluoromethyl)-N-(7-methoxy-4-(1-methyl-3-phenyl-1H-pyrazol-4-yl)quinazolin-6-yl)nicotinamide] | 3.6 | 1.7 | 4.9 |
| Cn1cc(-c2ncnc3cc(OC4CC4)c(NC(=O)[C@]45COCC4C5)nc23)c(-c2ccccc2)n1 (stereo partly drawn) [Example 459, (1S)—N-[7-cyclopropoxy-4-(1-methyl-3-phenyl-1H-pyrazol-4-yl)pyrido[3,2-d]pyrimidin-6-yl]-3-oxabicyclo[3.1.0]hexane-1-carboxamide] | 3.8 | 1 | 1.2 |
| C[C@H](O)c1cc2c(-c3cn(CC(F)F)nc3-c3ccccc3)ncnc2cc1-c1cnn(C)c1 (single isomer, unassigned) [Example 446, (S)-1-(4-(1-(2,2-difluoroethyl)-3-phenyl-1H-pyrazol-4-yl)-7-(1-methyl-1H-pyrazol-4-yl)quinazolin-6-yl)ethan-1-ol or (R)-1-(4-(1-(2,2-difluoroethyl)-3-phenyl-1H-pyrazol-4-yl)-7-(1-methyl-1H-pyrazol-4-yl)quinazolin-6-yl)ethan-1-ol] | 0.9 | 0.6 | 0.7 |
| COc1cc2ncnc(-c3cn(CC(F)F)nc3-c3ccccc3)c2nc1NC(=O)[C@H]1CCN1C [Example 391, (R)—N-(4-(1-(2,2-difluoroethyl)-3-phenyl-1H-pyrazol-4-yl)-7-methoxypyrido[3,2-d]pyrimidin-6-yl)-1-methylazetidine-2-carboxamide] | 2.5 | 1.3 | 0.7 |
| COc1cc2ncnc(-c3cn(CC(F)F)nc3-c3ccccc3)c2cc1OC(=O)N1CCN(C)C[C@@H]1C [Example 70, 4-(1-(2,2-difluoroethyl)-3-phenyl-1H-pyrazol-4-yl)-7-methoxyquinazolin-6-yl (S)-2,4-dimethylpiperazine-1-carboxylate] | 2.7 | 1.7 | 1.6 |
| COc1cc2ncnc(-c3cn(C4COC4)nc3-c3ccccc3)c2cc1OC(=O)N1CCOC[C@@H]1C [Example 68, 7-methoxy-4-(1-(oxetan-3-yl)-3-phenyl-1H-pyrazol-4-yl)quinazolin-6-yl (S)-3-methylmorpholine-4-carboxylate] | 6.3 | 2.7 | 3 |
| COc1cc2ncnc(-c3cn(C)nc3-c3ccccc3)c2nc1NC(=O)[C@@]1(C(F)(F)F)CCN(C)C1 (single isomer, unassigned) [Example 394, (R)—N-(7-methoxy-4-(1-methyl-3-phenyl-1H-pyrazol-4-yl)pyrido[3,2-d]pyrimidin-6-yl)-1-methyl-3-(trifluoromethyl) pyrrolidine-3-carboxamide or (S)—N-(7-methoxy-4-(1-methyl-3-phenyl-1H-pyrazol-4-yl)pyrido[3,2-d]pyrimidin-6-yl)-1-methyl-3-(trifluoromethyl) pyrrolidine-3-carboxamide] | 6.9 | 2.7 | 9.3 |

Continued by falling IC50 (EGFR L858R), values first:

| IC50 (EGFR L858R) [nM] | IC50 (EGFR (d746-750)) [nM] | IC50 [1] [nM] | SMILES |
| --- | --- | --- | --- |
| 6.9 | 3.2 | 8.8 | COc1cc2ncnc(-c3cn(C)nc3-c3ccccc3)c2nc1NC(=O)c1ccc(F)cc1 [Example 312, 4-fluoro-N-(7-methoxy-4-(1-methyl-3-phenyl-1H-pyrazol-4-yl)pyrido[3,2-d]pyrimidin-6-yl)benzamide] |
| 5.5 | 2.4 | 11.2 | CC(C)Oc1cc2ncnc(-c3cn(C)nc3-c3ccccc3)c2cc1[C@H](C)O (single isomer, unassigned) [Example 113, (S)-1-(7-isopropoxy-4-(1-methyl-3-phenyl-1H-pyrazol-4-yl)quinazolin-6-yl)ethan-1-ol or (R)-1-(7-isopropoxy-4-(1-methyl-3-phenyl-1H-pyrazol-4-yl)quinazolin-6-yl)ethan-1-ol] |
| 5.3 | 2 | 4.6 | COc1cc2ncnc(-c3cn(C)nc3-c3ccccc3)c2nc1O[C@@H](C)c1nnc(C)o1 [Example 37, (S)-2-(1-((7-methoxy-4-(1-methyl-3-phenyl-1H-pyrazol-4-yl)pyrido[3,2-d]pyrimidin-6-yl)oxy)ethyl)-5-methyl-1,3,4-oxadiazole] |
| 2.1 | 0.9 | 3.8 | COc1cc2ncnc(-c3cn(C)nc3-c3ccccc3)c2cc1NC(=O)C1(c2cccnc2)CC1 [Example 216, N-(7-methoxy-4-(1-methyl-3-phenyl-1H-pyrazol-4-yl)quinazolin-6-yl)-1-(pyridin-3-yl)cyclopropane-1-carboxamide] |
| 1.9 | 0.6 | 3.4 | C[C@H](O)c1cc2c(-c3cn(CC(F)F)nc3-c3ccccc3)ncnc2cc1O[C@H]1CCOC1 (single isomer, unassigned) [Example 117, (S)-1-(4-(1-(2,2-difluoroethyl)-3-phenyl-1H-pyrazol-4-yl)-7-(((S)-tetrahydrofuran-3-yl)oxy)quinazolin-6-yl)ethan-1-ol or (R)-1-(4-(1-(2,2-difluoroethyl)-3-phenyl-1H-pyrazol-4-yl)-7-(((S)-tetrahydrofuran-3-yl)oxy)quinazolin-6-yl)ethan-1-ol] |
| 1.8 | 1.1 | 2.4 | COc1cc2ncnc(-c3cn(C)nc3-c3ccccc3)c2cc1O[C@H]1CCOC[C@@H]1F [Example 17, 6-(((3S,4S)-3-fluorotetrahydro-2H-pyran-4-yl)oxy)-7-methoxy-4-(1-methyl-3-phenyl-1H-pyrazol-4-yl)quinazoline] |
| 1.7 | 0.7 | 2.7 | CCn1cc(-c2ncnc3cc(OC)c(NC(=O)[C@]45COC[C@H]4C5)cc23)c(-c2ccccc2F)n1 (mixture of isomers) [Example 263, (1S,5S)—N-(4-(1-ethyl-3-(2-fluorophenyl)-1H-pyrazol-4-yl)-7-methoxyquinazolin-6-yl)-3-oxabicyclo[3.1.0]hexane-1-carboxamide and (1R,5R)—N-(4-(1-ethyl-3-(2-fluorophenyl)-1H-pyrazol-4-yl)-7-methoxyquinazolin-6-yl)-3-oxabicyclo[3.1.0]hexane-1-carboxamide] |
| 1 | 0.6 | 1 | COC(=O)Nc1cc2c(-c3cn(C)nc3-c3ccccc3)ncnc2cc1OC [Example 157, methyl (7-methoxy-4-(1-methyl-3-phenyl-1H-pyrazol-4-yl)quinazolin-6-yl)carbamate] |
